Test results reported in PMC5423902, “CXCL9-Derived Peptides Differentially Inhibit Neutrophil Migration In Vivo through Interference with Glycosaminoglycan Interactions” (Frontiers in Immunology, 2017).

How the values were obtained:
[1] = system: CXCL8(1-77) binding to heparan sulfate (HS); test: Competition with CXCL8 for binding to immobilized HS (ELISA-like); set-up: species or system human; settings: CXCL8(1-77) 0-300 nM, n ≥ 4, Figure 3B
Protocol: The ability of the COOH-terminal peptides of CXCL9 and CXCL4 to compete for GAG binding with the inflammatory chemokines CXCL8 and CXCL1 was evaluated on heparin-binding plates [BD Biosciences or produced by Jason Whittle (School of Engineering/Future Industries Institute, University of South Australia, Australia)] ([42], [47]). In brief, GAGs (heparin, HS, and CS; Iduron; 25 µg/ml) were coated overnight at room temperature. Dilutions of COOH-terminal CXCL9 or CXCL4 peptide combined with recombinant human CXCL8(1-77) or recombinant murine CXCL1(1-72) (Peprotech, Rocky Hill, NJ, USA) were added in duplicate and incubated for 2 h at 37°C. Subsequently, bound CXCL8 or CXCL1 was detected with biotinylated polyclonal rabbit anti-human CXCL8 or biotinylated polyclonal goat anti-mouse CXCL1 (Peprotech) and horse radish peroxidase-labeled streptavidin. Finally, the peroxidase activity was quantified at 450 nm.
Figure 3 CXCL9(74-93) competes with CXCL8 for binding to heparin, heparan sulfate (HS), and cellular glycosaminoglycans (GAGs). Competition between CXCL8 and COOH-terminal CXCL9 or CXCL4 peptides for binding to immobilized heparin (A) or HS (B) and to Chinese hamster ovary (CHO) cells (C) was performed. […] Bound CXCL8 was detected with biotinylated anti-human CXCL8 antibodies. (C) Binding of NH2-terminally biotinylated CXCL8(1-77) (300 nM) to CHO cells in the presence or absence of an excess CXCL9 peptide was detected by streptavidin-allophycocyanin and flow cytometry. The mean (± SEM) percentage inhibition of binding of CXCL8(1-77) to heparin, HS or cellular GAGs is indicated on the y-axis (n ≥ 4). Statistical comparison of the different competitors with CXCL9(74–103) was performed using the Mann–Whitney U-test (*p < 0.05).

[2] = system: CXCL8-induced neutrophil migration; test: CXCL8-induced neutrophil migration to the peritoneal cavity; type: in vivo, mouse (NMRI); settings: for neutrophils in the peritoneal cavity upon CXCL8: significant; for neutrophils in the peritoneal cavity upon CXCL8 / percentage of neutrophils in the peritoneal cavity upon CXCL8: n ≥ 5
Protocol: (§1) In vivo neutrophil extravasation to the peritoneal or the knee cavity was examined, respectively, by intraperitoneal or intra-articular injection, of endotoxin-free recombinant CXCL8(1-77) (PeproTech) or vehicle (PBS) in female NMRI or C57BL/6 mice, as described previously ([42], [48]). Simultaneously, synthetic CXCL9 peptide was co-injected either intraperitoneally or injected intravenously. After 2 h (peritoneal cavity) or 3 h (knee cavity), mice were sacrificed. The peritoneal cavity was washed with saline enriched with 2% FCS and 20 U/ml heparin and total leukocyte counts were determined. For the preparation of cytospins, 10^5 cells were used and absolute number and percentage of neutrophils in the lavages were determined in duplicate independently by two researchers by differential microscopic counting. The cells present in the tibiofemoral articulation were harvested by washing the cavity with 10 µl of 3% (w/v) bovine serum albumin in PBS and diluted in 90 µl of 3% (w/v) bovine serum albumin in PBS. The number of total leukocytes was determined by counting leukocytes in a Neubauer chamber after staining with Turk’s solution. Differential counts were obtained from cytospin preparations by evaluating the percentage of each leukocyte type on a slide stained with May-Grunwald-Giemsa solution.
Figure 4 The COOH-terminal peptides of CXCL9 inhibit CXCL8-induced neutrophil migration to the peritoneal cavity. CXCL8(1-77) was injected into the peritoneal cavity of NMRI mice (n ≥ 5) simultaneously with an intraperitoneal (A) or intravenous (B,C) injection of CXCL9(74-103) or CXCL9(74–93). The number of neutrophils in the peritoneal cavity, 2 h post injection, were evaluated by differentially counting the leukocyte subtypes on Hemacolor-stained cytospins. The neutrophil counts are shown for every individual mouse, and the horizontal lines denote the median percentage. To detect statistically significant differences, the Mann–Whitney U-test was carried out (*p < 0.05; **p < 0.01; ***p < 0.005).

[3] = system: CXCL8-induced neutrophil migration; test: CXCL8-induced neutrophil migration to the knee cavity; type: in vivo, mouse (C57BL/6); settings: 66 µg peptide i.v., 1 µg CXCL8 intra-articular, C57BL/6, 3 h, n ≥ 5, Figure 5
Protocol: as §1, with “The cells present in the tibiofemoral articulation were harvested by washing the cavity with 10 µl of 3% (w/v) bovine serum albumin in PBS and diluted in 90 µl of 3% (w/v) bovine serum albumin in PBS.” left out, “Differential counts were obtained from cytospin preparations by evaluating the percentage of each leukocyte type on a slide stained with May-Grunwald-Giemsa solution.” left out
Figure 5 CXCL9(74-93) inhibits CXCL8-induced but not monosodium urate (MSU) crystal-induced neutrophil migration to the knee cavity. […] Simultaneously, 66 µg of CXCL9(74-93) was injected intravenously and 3 h post injection the number of total cells (A) and neutrophils (B) were evaluated by washing the cavity and differentially counting the leukocyte subtypes on May-Grunwald-Giemsa-stained cytospins. […]

[4] = previously reported; read-out: KD for LMWH; cited from earlier work
Protocol: To obtain more insight in the contribution of the unique COOH-terminal region of CXCL9 and in the specificity of CXCL9-derived peptides for different GAGs, the affinity of CXCL9(74–93) for LMWH, HS, and CS was determined by IFT. […] A biphasic binding isotherm was obtained when titrating CXCL9(74-93) with HS, indicating more than one binding site for the peptide on this GAG. Fitting only the initial high-affinity phase, a KD ...

[5] = system: dengue virus; settings: cited from earlier work
From the text: (§2) In several inflammatory diseases, an enhanced expression of chemokines leads to the pathological and continuous accumulation of activated leukocytes in tissues and consequently tissue damage. Thus, a reduction of chemokine activity at sites of excessive inflammation is needed. Although a lot of efforts were invested in the development of small molecule chemokine receptor antagonists, since the discovery of chemokine receptors as members of the GPCR family about two decades ago, success stories are limited to a few drugs that entered the market ([66]). Recently, inhibition of chemokine–GAG inte ...

[6] = system: herpes simplex virus-1; settings: cited from earlier work
From the text: as §2

[7] = system: respiratory syncytial virus; settings: cited from earlier work
From the text: as §2

Row | Substance | inhibition of CXCL8 binding on HS-coated plates [1] | neutrophils in the peritoneal cavity upon CXCL8 ([2]; 66 µg peptide i.v. (equal molar amount to 108 µg CXCL9(74-103)), CXCL8 i.p., control 192 × 10^4, Figure 4C) | percentage of neutrophils in the peritoneal cavity upon CXCL8 ([2]; 66 µg peptide i.v., CXCL8 i.p., control 19%, Figure 4C) [%] | potency against CXCL8 relative to CXCL9(74-103) ([2]; i.v., peritoneal model, Figure 4C) | neutrophils in the joint upon CXCL8 ([3]; control 13.3 × 10^3) | percentage of neutrophils in the joint upon CXCL8 ([3]; control 60.5%) [%] | reduction of CXCL8-induced neutrophil recruitment to peritoneal cavity ([2]; 12 µg peptide i.p., Figure 4A) | reduction of CXCL8-induced neutrophil recruitment to peritoneal cavity ([2]; 36 µg peptide i.p., Figure 4A) | neutrophil influx to peritoneal cavity upon CXCL8 ([2]; 36 µg peptide i.v., not significant, Figure 4B) | neutrophils in the peritoneal cavity upon CXCL8 ([2]; 108 µg peptide i.p. co-injected with 1 µg CXCL8 i.p., NMRI, 2 h, CXCL8 alone about 142 × 10^4, Figure 4A) | percentage of neutrophils in the peritoneal cavity upon CXCL8 ([2]; 108 µg peptide i.p. co-injected with 1 µg CXCL8 i.p., NMRI, 2 h, Figure 4A) [%] | reduction of CXCL8-induced neutrophil migration to peritoneal cavity ([2]; lower doses i.v., Figure 4B) | percentage of neutrophils in the peritoneal cavity upon CXCL8 ([2]; peptide i.v. (highest dose tested, dose not given), CXCL8 i.p., control 16.5%, Figure 4B) [%] | neutrophils in the peritoneal cavity upon CXCL8 ([2]; peptide i.v. (highest dose tested, dose not given), CXCL8 i.p., control 148 × 10^4, Figure 4B) | Kd [4] [nM] | inhibition of viral infection of cells [5] | inhibition of viral infection of cells [6] | inhibition of viral infection of cells [7]
1 | 74KKKQKNGKKHQKKKVLKVRK93 [CXCL9(74-93), COOH-terminal peptide of CXCL9 lacking the 10 COOH-terminal amino acids of CXCL9(74-103)] | equally efficient in inhibiting CXCL8 binding | 65 × 10^4 neutrophils | 8.25 | equally potent inhibitor of CXCL8 than CXCL9(74-103) | 0.67 × 10^3 neutrophils | 17.5 | – | – | – | – | – | – | – | – | – | – | – | –
2 | 74KKKQKNGKKHQKKKVLKVRKSQRSRQKKTT103 [CXCL9(74-103), COOH-terminal peptide of CXCL9] | equally efficient in inhibiting CXCL8 binding | – | – | – | – | – | failed to reduce CXCL8-induced neutrophil recruitment | failed to reduce CXCL8-induced neutrophil recruitment | a trend toward a lower neutrophil influx | 45 × 10^4 neutrophils | 6.6 | not able to reduce the neutrophil migration significantly | 10.1 | 81 × 10^4 neutrophils | 61 | able to inhibit viral infection of cells | able to inhibit viral infection of cells | able to inhibit viral infection of cells
